# Patent US20260083864A1, “CONTRAST AGENTS FOR USE IN DIAGNOSTIC COMPUTED TOMOGRAPHY IMAGING” (Bayer Aktiengesellschaft, priority 2022, published 2026)
# Key:
# [1] = of the administered dose, literature; cited from earlier work
# [2] = Complex stability (transmetallation) against Zn2+ in phosphate buffer; conditions: 72 hours, 2.5 mM Zn^2+, 26 mM phosphate buffer, 37° C., pH 7.4
# Text: If test compounds are instable under these conditions, transmetallation during this test would lead to the formation of the Zn^2+ complex of the test item, while Gd^3+ is released and precipitated as highly insoluble GdPO4.
# OATP1B1 = target: T1, OATP1B1 (Homo sapiens, UniProt Q9Y6L6); assay: Uptake into stable transfected OATP1B1 HEK 293 cells; format: cell-based
# T1 sequence (Q9Y6L6 1-691): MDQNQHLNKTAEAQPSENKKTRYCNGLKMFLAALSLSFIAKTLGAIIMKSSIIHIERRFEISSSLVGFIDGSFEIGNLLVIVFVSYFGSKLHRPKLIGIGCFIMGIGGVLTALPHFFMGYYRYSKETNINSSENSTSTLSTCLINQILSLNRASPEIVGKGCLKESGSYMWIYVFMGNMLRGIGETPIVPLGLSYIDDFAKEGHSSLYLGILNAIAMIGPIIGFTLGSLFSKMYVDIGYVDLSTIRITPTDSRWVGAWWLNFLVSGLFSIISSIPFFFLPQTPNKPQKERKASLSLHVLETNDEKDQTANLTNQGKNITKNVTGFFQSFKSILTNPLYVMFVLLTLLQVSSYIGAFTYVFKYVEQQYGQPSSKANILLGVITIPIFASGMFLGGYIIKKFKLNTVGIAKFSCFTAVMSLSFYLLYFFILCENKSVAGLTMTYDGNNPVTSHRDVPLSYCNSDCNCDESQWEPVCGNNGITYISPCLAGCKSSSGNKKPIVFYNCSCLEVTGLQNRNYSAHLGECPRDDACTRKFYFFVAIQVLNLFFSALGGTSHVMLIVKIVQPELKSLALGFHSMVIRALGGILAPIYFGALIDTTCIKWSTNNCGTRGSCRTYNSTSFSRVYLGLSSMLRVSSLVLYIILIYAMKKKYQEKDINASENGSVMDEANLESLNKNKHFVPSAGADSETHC
# How it was run: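 Stably transfected OATP1B1 HEK293 cells incubated 40 min without shaking with test item at 100 µM final in transport buffer, in triplicate. Cells then washed with cold PBS; gadoxetate run on the same plate as reference.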
# OATP1B3 = target: T2, OATP1B3 (Homo sapiens, UniProt Q9NPD5); assay: Uptake into stable transfected OATP1B3 HEK 293 cells; format: cell-based
# T2 sequence (Q9NPD5 1-702): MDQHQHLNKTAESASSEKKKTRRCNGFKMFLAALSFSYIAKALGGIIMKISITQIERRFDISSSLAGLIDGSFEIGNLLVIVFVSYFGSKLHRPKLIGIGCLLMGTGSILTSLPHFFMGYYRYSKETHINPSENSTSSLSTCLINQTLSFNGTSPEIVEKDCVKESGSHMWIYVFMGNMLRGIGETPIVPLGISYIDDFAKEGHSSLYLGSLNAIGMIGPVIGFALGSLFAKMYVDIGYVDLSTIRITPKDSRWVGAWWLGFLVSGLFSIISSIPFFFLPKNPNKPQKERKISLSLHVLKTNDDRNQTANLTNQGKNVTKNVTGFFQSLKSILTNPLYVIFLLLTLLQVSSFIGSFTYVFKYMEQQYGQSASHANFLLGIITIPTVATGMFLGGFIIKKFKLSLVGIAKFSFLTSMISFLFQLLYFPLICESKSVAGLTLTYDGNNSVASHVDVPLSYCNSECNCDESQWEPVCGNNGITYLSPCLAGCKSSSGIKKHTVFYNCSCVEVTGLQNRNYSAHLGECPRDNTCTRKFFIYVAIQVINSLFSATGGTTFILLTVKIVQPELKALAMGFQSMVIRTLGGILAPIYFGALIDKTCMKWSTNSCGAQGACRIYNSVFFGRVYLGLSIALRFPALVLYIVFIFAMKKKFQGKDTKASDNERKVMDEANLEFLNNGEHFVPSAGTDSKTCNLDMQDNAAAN
# How it was run: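 HEK 293 cells stably transfected with human OATP1B3 were incubated for 40 min with test items at 100 μM final in transport buffer, in triplicate, then washed with cold PBS. Gadoxetate (Gd-EOB-DTPA) served as the reference standard on the same plate.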
# [3] = Partition coefficient (log P butanol/buffer); format: physicochemical; conditions: 1-butanol / 50 mM Tris-HCl, pH 7.4, room temperature
# [4] = reference compounds, 1.5 T, 37° C., from Rohrer et al.; cited from earlier work
# [5] = reference compounds, 1.5 T, 37° C., bovine plasma instead of human plasma, from Rohrer et al.; cited from earlier work
# [6] = tested on: freshly isolated rat hepatocytes; assay: Uptake into freshly isolated rat hepatocytes
# [7] = 40 min incubation, relative to RC1 (Gd-EOB-DTPA)
SMILES,Secreted / excreted into the bile [1],Transmetallation stability [2] [%],Uptake into OATP1B1-HEK 293 cells (OATP1B1; [7]),Inhibition Rifampicine (OATP1B1; uptake into OATP1B1-HEK 293 cells) [% inhibition],Uptake into OATP1B3-HEK 293 cells (OATP1B3; [7]),Inhibition Rifampicine (OATP1B3; uptake into OATP1B3-HEK 293 cells) [% inhibition],Log P (partition coefficient butanol/buffer) [3],r1 water [4] [L/mmol/s],r1 plasma (r1 human plasma) [5] [L/mmol/s],"Uptake rat hepatocytes ([6]; 100 μmol Gd/L, 10 min, 37° C., relative to RC1 (Gd-EOB-DTPA))","Inhibition Rifampicine ([6]; rat hepatocyte uptake, test item and Rifampicine 1:1, each 100 μM) [% inhibition]"
"O=C([O-])CN(CCN(CC(=O)[O-])CC(=O)[O-])CCN(CC(=O)[O-])C(COCc1ccccc1)C(=O)[O-].[Gd+3].[H+].[H+] (stereo not drawn) [Gd-BOPTA, gadobenic acid]",3-to-5%,–,–,–,–,–,–,–,–,–,–
"CCOc1ccc(C[C@@H](CN(CCN(CC(=O)[O-])CC(=O)[O-])CC(=O)[O-])N(CC(=O)[O-])CC(=O)[O-])cc1.[Gd+3].[H+].[H+] [Gd-EOB-DTPA, gadoxetic acid]",up to 50%,–,–,–,–,–,–,–,–,–,–
"O=C([O-])CN(CCN(CC(=O)[O-])CC(=O)[O-])CCN(CC(=O)[O-])C(COCc1ccccc1)C(=O)[O-].[Gd+3].[H+].[H+] (stereo not drawn) [RC2, gadobenic acid, reference compound]",–,14,31 % of RC1,61,4 % of RC1,87,−2.07,3.3,4.1,9 % of RC1,79
